Experimental data as given in US12172986B2, “Splicing modulator antibody-drug conjugates and methods of use” (EISAI R&D MANAGEMENT CO., LTD., priority 2018, dated 2024).
Where “and” joins values, the source holds several entries; their conditions need not be identical. Equal values may be shown once.

Assays:
MOLP8 cells = experiment: Cell viability, CD138-expressing MOLP8; type: cell-based; conditions: for LD50 (nM) (payload) / Rmin (%) (payload): unconjugated payload of the ADC
Description: (§2) HCC1954 (American Type Culture Collection (ATCC)) breast ductal carcinoma cells were plated at 2000 cells/well in flat bottom 96-well tissue culture plates (Corning) in a total volume of 90 μL tissue culture medium supplemented with 10% fetal bovine serum (ThermoFisher Scientific). Cells were treated with a 3-fold serial dilution of compound from 200 nM to 0.03 nM. Each concentration was tested in triplicate. At the time of treatment, a plate of untreated cells was evaluated using CellTiter-Glo®2.0 Luminescent Cell Viability Assay according to the manufacturer's recommendations (Promega; #G9241). CellTiter-Glo® 2.0 reagent was added to the medium, incubated, and assayed on an EnVision Multilabel Reader (PerkinElmer). Values represent time zero (TO). […] Percentage growth inhibition was calculated as: [(T144-T0)/(C-TO)]×100 for concentrations for which T144>/=TO or [(T144-T0)/T0]×100 for concentrations for which T144<TO. The dose response curve plots were generated using Prism 7 (Graphpad) and fit using nonlinear regression analysis and the log(inhibitor) versus response-variable slope (four parameters).

Caco-2 cells = experiment: Caco-2 permeability of ADC payload; type: in vitro ADME; conditions: for Permeability Caco-2 A-B (10e-6 cm/s): Table 26, corresponding payload; for Perm. Mean Caco-2 A-B Perm (10e-6 cm/s) / Perm. Mean Caco-2 B-A Perm (10e-6 cm/s): corresponding free payload of the ADC; for Eflux ratio: B-A/A-B
Description: (§1) Integrity of cell monolayer was confirmed by TEER (transepithelial electrical resistance) and Lucifer yellow. Payloads were spiked in duplicate at 10 μM, separately, on both sides of the cell monolayer. Permeability rates from the apical to basolateral (A-B) direction and the basolateral to apical (B-A) direction were determined by sampling aliquots from both chambers immediately after treatment (t=0) and following incubation for 2 hours. Samples were protein precipitated with organic solvent containing internal standard and analyzed by LC-MS/MS (SCIEX; API 5500). The area ratio responses of payload/internal standard over time in both directions were used to generate permeability (cm/see) values. Efflux ratio was calculated by dividing B-A/A-B. Control compounds for low and high permeability and efflux behaved as expected.

[1] = Chemical stability of ADC payload, pH 5.5 buffer; conditions: for pH 5.5 Stability (t1/2, 37C): Table 26, corresponding payload, pH 5.5, 37C
Ad2.1 pre-mRNA splicing = experiment: In vitro splicing (IVS) RT-qPCR, Ad2.1 pre-mRNA, HeLa nuclear extract; type: biochemical; conditions: payload of the ADC; read-out: qPCR-IVS-AT S Gmean IC50 (nm) Ad2.1 HELA.2
Description: HeLa nuclear extract preparation: HeLa S3 cell pellets were resuspended in hypotonic buffer (10 mM HEPES pH 7.9, 1.5 mM MgCl2, 10 mM KCl, 0.2 mM PMSF, 0.5 mM DTT) and the suspension was brought up to a total of 5 packed cell volume (PCV). After centrifugation, the supernatant was discarded, and the cells were brought up to 3 PCV with hypotonic buffer and incubated on ice for 10 min. Cells were lysed using a dounce homogenizer and then centrifuged. […] The nuclei were gently mixed for 30 min before centrifuging. The supernatant (nuclear extract) was then dialyzed into storage buffer (20 mM HEPES pH 7.9, 100 mM KCl, 0.2 mM EDTA, 20% glycerol, 0.2 mM PMSF, 0.5 mM DTT). Protein concentration was determined using NanoDrop 8000 UV-Vis spectrophotometer (ThermoFisher Scientific).
IVS: All Ad2-derived sequences (Pellizzoni et al. (1998) Cell 95(5):615-24) were cloned into pcDNA3.1(+) vector (Promega) using 5′ EcoRI and 3′ Xbal restriction sites. The plasmids were linearized using Xbal and used as DNA templates in in vitro transcription reactions. The FtzΔi intron-less plasmid (Luo and Reed (1999) 96(26):14937-42) was linearized using EcoRI. All RNAs were in vitro transcribed and then purified using MEGAScript T7 (Invitrogen) and MegaClear (Invitrogen) kits, respectively. For splicing reactions using Ad2 variant pre-mRNAs, 1 μL reactions were prepared using 8 μg nuclear extracts prepared from HeLa S3, 2 ng pre-mRNA, 0.2 ng FTZΔi, and varying concentrations of compounds or DMSO. After a 15 min pre-incubation at 30° C., 1 μL splicing activation buffer (0.5 mM ATP, 20 mM creatine phosphate, 1.6 mM MgCl2) was added, and the reactions were incubated for 90 min at 30° C. The reactions were then quenched with 13 μL DMSO, and 25 nL was used for RT-qPCR. RT-qPCR reactions were prepared using TaqMan RNA-to-CT 1-step kit (Life Technologies), RNA from splicing reactions, Ad2 (forward: [sequence]; reverse: [sequence]; probe: [sequence]) and Ftz (forward: [sequence]; reverse: [sequence]; probe: [sequence]) mRNA primer-probe sets. Prism 7 (Graphpad) was used for non-linear regression curve fitting of the formed spliced product and normalized to the control (DMSO) sample.

SF3b complex = molecular target: T1, SF3b complex (Homo sapiens, UniProt O75533+Q7RTV0); experiment: SF3B1 binding / scintillation proximity assay (SPA); conditions: payload of the ADC; read-out: SPA-AT S GMean IC50 (nM) SF381 (WT) HELA.2
T1 construct: The beads were suspended and added to the prepared nuclear extracts
Description: A scintillation proximity assay was performed to measure the binding affinity of compounds (“payloads”) to the SF3b complex. Batch immobilization of anti-SF3B1 antibody (MBL) to anti-mouse PVT SPA scintillation beads (PerkinElmer) was prepared as follows: for every 2.5 mg of nuclear extracts, 5 μg of anti-SF3B1 antibody and 1.5 mg of beads were mixed in 150 μL PBS. The antibody-bead mixture was incubated for 30 min at RT and centrifuged at 18,000g for 5 min. 150 μL PBS was used to resuspend every 1.5 mg antibody-bead mixture. The beads were suspended and added to the prepared nuclear extracts. The slurry was incubated for 2 hours at 4° C. with gentle mixing. The beads were then collected by centrifuging at 18,000g for 5 min, and washed twice with PBS+0.1% Triton X-100. After a final centrifugation step, every 1.5 mg of beads was suspended with 150 μL of PBS. […] The mixture was incubated for 30 min, and luminescence signals were read using a MicroBeta2 Plate Counter (PerkinElmer).

THP1.1 = experiment: Payload cell potency and lethality CTGlo 72 h, THP1.1; type: cell-based; conditions: payload
Ad2.2 pre-mRNA splicing = experiment: In vitro splicing (IVS) RT-qPCR, Ad2.2 pre-mRNA, HeLa nuclear extract; type: biochemical; conditions: payload of the ADC; read-out: qPCR-IVS-AT S GMean IC50 (nM) Ad2.2 HELA.2
Description: To evaluate payload activity in a cell-free system, an in vitro splicing assay was performed. The payloads were incubated with nuclear extracts and pre-mRNA substrate minigenes.
HeLa nuclear extract preparation: HeLa S3 cell pellets were resuspended in hypotonic buffer (10 mM HEPES pH 7.9, 1.5 mM MgCl2, 10 mM KCl, 0.2 mM PMSF, 0.5 mM DTT) and the suspension was brought up to a total of 5 packed cell volume (PCV). After centrifugation, the supernatant was discarded, and the cells were brought up to 3 PCV with hypotonic buffer and incubated on ice for 10 min. Cells were lysed using a dounce homogenizer and then centrifuged. […]. The nuclei were gently mixed for 30 min before centrifuging. The supernatant (nuclear extract) was then dialyzed into storage buffer (20 mM HEPES pH 7.9, 100 mM KCl, 0.2 mM EDTA, 20% glycerol, 0.2 mM PMSF, 0.5 mM DTT). Protein concentration was determined using NanoDrop 8000 UV-Vis spectrophotometer (ThermoFisher Scientific).
IVS: All Ad2-derived sequences (Pellizzoni et al. (1998) Cell 95(5):615-24) were cloned into pcDNA3.1(+) vector (Promega) using 5′ EcoRI and 3′ Xbal restriction sites. The plasmids were linearized using Xbal and used as DNA templates in in vitro transcription reactions. The FtzΔi intron-less plasmid (Luo and Reed (1999) 96(26):14937-42) was linearized using EcoRI. All RNAs were in vitro transcribed and then purified using MEGAScript T7 (Invitrogen) and MegaClear (Invitrogen) kits, respectively. For splicing reactions using Ad2 variant pre-mRNAs, 1 μL reactions were prepared using 8 μg nuclear extracts prepared from HeLa S3, 2 ng pre-mRNA, 0.2 ng FTZΔi, and varying concentrations of compounds or DMSO. After a 15 min pre-incubation at 30° C., 1 μL splicing activation buffer (0.5 mM ATP, 20 mM creatine phosphate, 1.6 mM MgCl2) was added, and the reactions were incubated for 90 min at 30° C. The reactions were then quenched with 13 μL DMSO, and 25 nL was used for RT-qPCR. RT-qPCR reactions were prepared using TaqMan RNA-to-CT 1-step kit (Life Technologies), RNA from splicing reactions, Ad2 (forward: […]; reverse: […]; probe: […]) and Ftz (forward: […]; reverse: […]; probe: […]) mRNA primer-probe sets. Prism 7 (Graphpad) was used for non-linear regression curve fitting of the formed spliced product and normalized to the control (DMSO) sample. […] In the presence of payload, a decrease in the amount of spliced product was observed.

[2] = in vivo; cited from earlier work
MCF7 cells = experiment: Cell viability CellTiter-Glo, HER2-negative MCF7; conditions: unconjugated payload of the ADC
Description: HCC1954 (American Type Culture Collection (ATCC)) breast ductal carcinoma cells were plated at 2000 cells/well in flat bottom 96-well tissue culture plates (Corning) in a total volume of 90 μL tissue culture medium supplemented with 10% fetal bovine serum (ThermoFisher Scientific). Cells were treated with a 3-fold serial dilution of compound from 200 nM to 0.03 nM. Each concentration was tested in triplicate. At the time of treatment, a plate of untreated cells was evaluated using CellTiter-Glo®2.0 Luminescent Cell Viability Assay according to the manufacturer's recommendations (Promega; #G9241). CellTiter-Glo® 2.0 reagent was added to the medium, incubated, and assayed on an EnVision Multilabel Reader (PerkinElmer). Values represent time zero (TO). […] Using the luminescence value at time zero (TO), DMSO control growth (C), and test growth in the presence of compound (T144), the percentage growth was calculated at each of the compound concentrations levels. Percentage growth inhibition was calculated as: [(T144-T0)/(C-TO)]×100 for concentrations for which T144>/=TO or [(T144-T0)/T0]×100 for concentrations for which T144<TO. The dose response curve plots were generated using Prism 7 (Graphpad) and fit using nonlinear regression analysis and the log(inhibitor) versus response-variable slope (four parameters).
(§3) HCC1954 (ATCC), 2000 cells/well), N87 (ATCC, 4000 cells/well), SKBR3 (ATCC, 3000 cells/well), and MCF7 (ATCC, 1500 cells/well) cell lines were used.

HCC1954 cells = experiment: Cell viability CellTiter-Glo, HCC1954; type: cell-based; conditions: unconjugated payload of the ADC
Description: as §2, §3

PC3 cells = experiment: Cell viability, EPHA2-expressing PC3; type: cell-based; conditions: corresponding payload alone
Description: as §2

N87 cells = experiment: Cell viability CellTiter-Glo, N87; type: cell-based, human; conditions: unconjugated payload of the ADC
Description: as §2, §3

[3] = Caco-2 permeability of ADC payload; type: in vitro ADME; conditions: human, Caco-2; payload, B-A/A-B; read-out: Eflux ratio
Description: as §1

Compound | LD50 (nM) (payload) (MOLP8 cells) | Rmin (%) (payload) (MOLP8 cells) | Permeability Caco-2 A-B (10e-6 cm/s) (Caco-2 cells) | pH 5.5 Stability (t1/2, 37C) [1] | IC50 (Ad2.1 pre-mRNA splicing) | CTGlo-AT S GMean LD50 (nM) 72 h THP1.1 (THP1.1) | IC50 (Ad2.2 pre-mRNA splicing) | Payload LD50 (MCF7 cells) | Payload Rmin (%) (MCF7 cells) | Payload LD50 (HCC1954 cells) | Payload Rmin (%) (HCC1954 cells) | Payload LD50 (PC3 cells) | Payload LD50 (N87 cells) | efflux ratio at 2 h, 10 μM [3] | further results
CC[C@H](O)[C@@H](C)[C@H]1O[C@@H]1C[C@H](C)/C=C/C=C(\C)[C@H]1OC(=O)C[C@H](O)CC[C@@](C)(OC)[C@@H](OC(=O)N2CCN(C)CC2)/C=C/[C@@H]1C [D19, (2S,3S,6S,7R,10R,E)-10-hydroxy-2-((S,2E,4E)-7-((2R,3R)-3-((2R,3S)-3-hydroxypentan-2-yl)oxiran-2-yl)-6-methylhepta-2,4-dien-2-yl)-7-methoxy-3,7-dimethyl-12-oxooxacyclododec-4-en-6-yl 4-methylpiperazine-1-carboxylate] | 4.58 nM | −62.2% | 16 10e-6 cm/s | 0.8 |  |  |  |  |  |  |  |  |  |  | 
COc1cc2cc(c1Cl)N(C)C(=O)C[C@H](OC(=O)[C@H](C)N(C)C(=O)CCS)[C@]1(C)O[C@H]1[C@H](C)[C@@H]1C[C@@](O)(NC(=O)O1)[C@H](OC)/C=C/C=C(\C)C2 [DM1, reference compound] |  |  |  |  | > 25000 nM | 3.287 nM | > 25000 nM |  |  |  |  |  |  |  | Permeability Mean Caco-2 A-B Perm (10e-6 cm/s) (Caco-2 cells; payload, 10 μM, 2 hours, apical to basolateral): 0.38 10e-6 cm/s; Permeability Mean Caco-2 B-A Perm (10e-Gcm/s) (Caco-2 cells; payload, 10 μM, 2 hours, basolateral to apical): 28.6 10e-Gcm/s; IC50 (SF3b complex): > 1200 nM; CTGlo-AT S Mean MinResponse % 72 h THP1.1 (THP1.1): −93.785%; Stability Mean Stability t1/2 pH5.5 (d) ([1]; payload, 20 μM, pH 5.5 buffer, 37° C.): 1.3 d
ipilimumab |  |  |  |  |  |  |  |  |  |  |  |  |  |  | plasma half-life [2]: 12 to 14 days
CC[C@H](O)[C@@H](C)C1OC1C[C@@](C)(O)/C=C/C=C(\C)[C@H]1OC(=O)C[C@H](O)CC[C@@](C)(OC(C)=O)[C@@H](OC(=O)N2CCNCC2)/C=C/[C@@H]1C (stereo in doubt) [D4, (2S,3S,6S,7R,10R,E)-7-acetoxy-10-hydroxy-2-((R,2E,4E)-6-hydroxy-7-((2S,3S)-3-((2R,3S)-3-hydroxypentan-2-yl)oxiran-2-yl)-6-methylhepta-2,4-dien-2-yl)-3,7-dimethyl-12-oxooxacyclododec-4-en-6-yl piperazine-1-carboxylate] | 12.99 nM | −101.935% | 0.1 10e-6 cm/s | 4.5 | 20.9 nM | 33.329 nM | 17.3 nM | 96.46 nM | −60.923% | 6.374 nM | −81.34% | >400 nM | 38.774 nM |  | Perm. Mean Caco-2 A-B Perm (10e-6 cm/s) (Caco-2 cells): 0.1 10e-6 cm/s; Perm. Mean Caco-2 B-A Perm (10e-6 cm/s) (Caco-2 cells): 1.79 10e-6 cm/s; Eflux ratio (Caco-2 cells; payload): 17.9
C/C(=C\c1cc(F)cc(N2CCN(C(=O)Cn3cccn3)CC2)c1)[C@H]1OC(=O)C[C@H](O)CC[C@H](C)[C@@H](OC(=O)N2CCNCC2)/C=C/[C@@H]1C [D16] |  |  | 0.72 10e-6 cm/s | 7 | 16 nM | 21.46 nM | 15.1 nM |  |  | 2.037 nM | −84.412% |  | >200 nM | 32.4 | GI50 (HCC1954 cells; Homo sapiens): 0.358 nM; GI50 (N87 cells; Homo sapiens): 0.41 nM
CC[C@H](O)[C@@H](C)C1OC1C[C@@](C)(O)/C=C/C=C(\C)[C@H]1OC(=O)C[C@H](O)CC[C@@](C)(OC)[C@@H](OC(=O)N2CCNCC2)/C=C/[C@@H]1C (stereo in doubt) [D1, (2S,3S,6S,7R,10R,E)-10-hydroxy-2-((R,2E,4E)-6-hydroxy-7-((2S,3S)-3-((2R,3S)-3-hydroxypentan-2-yl)oxiran-2-yl)-6-methylhepta-2,4-dien-2-yl)-7-methoxy-3,7-dimethyl-12-oxooxacyclododec-4-en-6-yl piperazine-1-carboxylate] | 25.712 nM | −100.248% |  |  | 17.6 nM | 41.408 nM | 15.9 nM | 135.42 nM | −63.414% | 5.485 nM | −78.579% and −75.579% | >400 nM | >200 nM | 14.6 | GI50 (MOLP8 cells; Homo sapiens, MOLP-8, unconjugated payload of the ADC, read-out: GI50 (nM) (payload)): 6.88 nM; Perm. Mean Caco-2 A-B Perm (10e-6 cm/s) (Caco-2 cells): 0.14 10e-6 cm/s; Perm. Mean Caco-2 B-A Perm (10e-6 cm/s) (Caco-2 cells): 2.05 10e-6 cm/s; Eflux ratio (Caco-2 cells; payload): 14.643
C/C(=C\c1cccc(S(=O)(=O)N2CCCC2)c1)[C@H]1OC(=O)C[C@H](O)CC[C@H](C)[C@@H](OC(=O)N2CCN(C)CC2)/C=C/[C@@H]1C [D34] |  |  | 26 10e-6 cm/s | 7 |  |  |  |  |  |  |  |  |  |  | 
C/C(=C\c1cc(F)cc(N2CCOCC2)c1)[C@H]1OC(=O)C[C@H](O)CC[C@H](C)[C@@H](OC(=O)N2CCN(C)CC2)/C=C/[C@@H]1C [D17] |  |  | 20 10e-6 cm/s | 7 | 17.9 nM | 24.908 nM | 9.44 nM |  |  |  |  |  |  | 0.896 | 
CC(=O)N1CCC(n2nnc3c(F)cc(/C=C(\C)[C@H]4OC(=O)C[C@H](O)CC[C@H](C)[C@@H](OC(=O)N5CCN(C)CC5)/C=C/[C@@H]4C)cc32)CC1 [D15] | 9.178 nM | −100.198% | 3.4 10e-6 cm/s | 7 | 4.63 nM | 11.038 nM | 4.93 nM | 130.398 nM | −68.503% |  |  | >400 nM |  |  | 
tremelimumab |  |  |  |  |  |  |  |  |  |  |  |  |  |  | plasma half-life [2]: approximately 22 days
CC[C@H](O)[C@@H](C)[C@H]1O[C@@H]1C[C@@](C)(O)/C=C/C=C(\C)[C@H]1OC(=O)C[C@H](O)CC[C@@](C)(OC)[C@@H](OC(=O)N2CCN(C)CC2)/C=C/[C@@H]1C [D2, (2S,3S,6S,7R,10R,E)-10-hydroxy-2-((R,2E,4E)-6-hydroxy-7-((2R,3R)-3-((2R,3S)-3-hydroxypentan-2-yl)oxiran-2-yl)-6-methylhepta-2,4-dien-2-yl)-7-methoxy-3,7-dimethyl-12-oxooxacyclododec-4-en-6-yl 4-methylpiperazine-1-carboxylate] | 5.035 nM | −100.198% | 0.6 10e-6 cm/s | 4 | 19.1 nM and 19.3 nM | 11.708 nM | 15.3 nM | 30.318 nM | −66.915% | 2.758 nM | −78.732% | >400 nM | >200 nM | 22.8 | Eflux ratio (Caco-2 cells; payload): 22.756
